Experimental data taken from patent US6342522B1, “Microbiocidal compositions” (priority 1998, dated 2002).
Where “and” joins values, the source holds several entries; their conditions need not be identical. Identical values can stand only once.

What was measured:
Assay in all cases: MIC, two-fold serial dilutions in Malt Agar, synergism by Kull method
Type in all cases: cell-based
Coriolus versicolor = test system: Coriolus versicolor
Protocol: (§1) Each test tube was inoculated to make about 5×10^5 fungi per mil. The lowest concentrations of each compound or mixtures to inhibit visible growth (turbidity) at 30° C. for the fungi for 7 days were taken as the minimum inhibitory concentration (MIC). The MIC were taken as end points of activity. End points for the mixtures of compound A (Guanadine component) and Compound B (second Component microbiocide) were then compared with the end points for the guanadine component A alone and compound B alone. Synergism was determined by a commonly used and accepted method described by Kull, F. C.; Eisman, P. C.; Sylwestrowicz, H. D. and Mayer, R. L. in Applied Microbiology 9:538-541 (1961) using the ratio determined by Qa/QA+Qb/QB==Synergy Index (SI) wherein:
(§2) QA=concentration of compound A in parts per million (ppm), acting alone, which produced an end point.
(§3) Qa=concentration of compound A in ppm, in the mixture which produced an end point.
(§4) QB=concentration of compound B in ppm, acting alone which produced an end point.
(§5) Qb=concentration of compound B in ppm, in the mixture which produced an end point.
(§6) When the sum of Qa/QA and Qb/QB is greater than one, antagonism is indicated.
(§7) The MIC values of each compound tested alone (QA or QB) are end-point activities except where the value is expressed as […]. In these cases, the end-point activity was not seen at the highest tested concentration. For purpose of calculation of the synergy index and for operational definition of MIC, the reported value could be an underestimate of the true MIC; thus the true synergy index could be even lower.

Penicillium sp. = test system: Penicillium sp.
Protocol: as §1, §2, §3, §4, §5, §6, §7

Ophiostoma sp. = test system: Ophiostoma sp.
Protocol: as §1, §2, §3, §4, §5, §6, §7

Tyromyces palustris = settings: 30° C., 7 days
Protocol: as §1, §2, §3, §4, §5, §6, §7

Alternaria sp = test system: Alternaria sp
Protocol: as §1, §2, §3, §4, §5, §6, §7

Diplodia sp. = settings: 30° C., 7 days
Protocol: as §1, §2, §3, §4, §5, §6, §7

3-iodo-2-propynylbutyl carbamate [Iodocarb]
QB, end-point activity (MIC) of compound B acting alone (Coriolus versicolor; c versicolor, 30° C., 7 days): 16 ppm
QB, end-point activity (MIC) of compound B acting alone (Penicillium sp.; Penicillium sp, 30° C., 7 days): 4 ppm

N=C(N)NCCCCCCCCNCCCCCCCCNC(=N)N [Guazatine, 1,1-iminodi(octamethylene)diguanidine]
QA, end-point activity (MIC) of compound A acting alone (Ophiostoma sp.; Ophiosroma sp, 30° C., 7 days): 1 ppm
QA, end-point activity (MIC) of compound A acting alone (Tyromyces palustris; T palustri): 128 ppm
QA, end-point activity (MIC) of compound A acting alone (Alternaria sp; Alternaria sp, 30° C., 7 days): 32 ppm
QA, end-point activity (MIC) of compound A acting alone (Coriolus versicolor; c versicolor, 30° C., 7 days): 32 ppm and 64 ppm
QA, end-point activity (MIC) of compound A acting alone (Penicillium sp.; Penicillium sp, 30° C., 7 days): 128 ppm
QA, end-point activity (MIC) of compound A acting alone (Diplodia sp.): 64 ppm

CCCN(CCOc1c(Cl)cc(Cl)cc1Cl)C(=O)n1ccnc1 [Prochloraz, N-propyl-N-(2-(2,4,6-trichlorophenoxy)ethyl)-imidazole-1-carboximide]
MIC (Ophiostoma sp.; 168 h, read-out: QB, end-point activity (MIC) of compound B acting alone): 2 µg/mL
MIC (Tyromyces palustris; 168 h, read-out: QB, end-point activity (MIC) of compound B acting alone, T palustri): 64 µg/mL
QB, end-point activity (MIC) of compound B acting alone (Tyromyces palustris; T palustri): 128 ppm
MIC (Alternaria sp; Alternaria, 168 h, read-out: QB, end-point activity (MIC) of compound B acting alone): 4 µg/mL
MIC (Coriolus versicolor; Trametes versicolor, 168 h, read-out: QB, end-point activity (MIC) of compound B acting alone): 4 µg/mL
MIC (Penicillium sp.; Penicillium, 168 h, read-out: QB, end-point activity (MIC) of compound B acting alone): 32 µg/mL
